{"source": "PubChem BioAssay AID1259407", "about": "(Chemical Carcinogenesis Research Information System (CCRIS), 2018)", "test_system": "CCRIS mutagenicity, Ames/micronucleus/aberration tests", "assay": "CCRIS mutagenicity studies", "key": {"[1]": {"settings": "Test System: AMES SALMONELLA TYPHIMURIUM, Strain/Indicator: TA98, Metabolic Activation: NONE, Method: STANDARD PLATE"}, "[2]": {"settings": "Test System: AMES SALMONELLA TYPHIMURIUM, Strain/Indicator: TA100, Metabolic Activation: NONE, Method: STANDARD PLATE"}, "[3]": {"settings": "Test System: AMES SALMONELLA TYPHIMURIUM, Strain/Indicator: TA1535, Metabolic Activation: NONE, Method: STANDARD PLATE"}, "[4]": {"settings": "Test System: AMES SALMONELLA TYPHIMURIUM, Strain/Indicator: TA1537, Metabolic Activation: NONE, Method: STANDARD PLATE"}, "[5]": {"settings": "Test System: AMES SALMONELLA TYPHIMURIUM, Strain/Indicator: TA1538, Metabolic Activation: NONE, Method: STANDARD PLATE"}}, "note": "Calls of active or inactive are those of the source. No rule for the calls is given here."}
{"smiles": "O=C(O)CNCP(=O)(O)O", "values": [{"measurement": "mutagenic call", "setting": "End Point: IN VITRO MICRONUCLEUS, Test System: BOVINE LYMPHOCYTES, Metabolic Activation: NONE", "result": "inactive; negative"}, {"measurement": "mutagenic call", "setting": "End Point: IN VIVO CHROMOSOMAL ABERRATIONS, Test System: BONE MARROW ERYTHROCYTES, Species: RABBIT, Strain/Sex: NEW ZEALAND/MALE, Route: DRINKING WATER", "result": "active; positive (structural changes and ploidy)"}, {"measurement": "mutagenic call", "setting": "End Point: IN VIVO MICRONUCLEUS, Test System: BONE MARROW POLYCHROMATIC ERYTHROCYTES, Species: MOUSE, Strain/Sex: SWISS/MALE, FEMALE, Route: IP 2X IN AQUEOUS SUSPENSION WITHIN 24 HR", "result": "inactive; negative"}, {"measurement": "mutagenic call", "setting": "End Point: In vitro chromosomal aberrations, Test System: Bovine peripheral lymphocytes, Metabolic Activation: None", "result": "inactive; negative"}, {"measurement": "mutagenic call", "setting": "End Point: In vivo micronucleus, Test System: Bone marrow erythrocytes, Species: Mouse, Strain/Sex: Balb C/Male, female, Route: Intraperitoneal injection", "result": "active; positive (highest dose only)"}, {"measurement": "mutagenic call", "setting": "Test System: AMES SALMONELLA TYPHIMURIUM, Strain/Indicator: TA97, Metabolic Activation: HAMSTER, LIVER, S-9, AROCLOR 1254 (10%), Method: PREINCUBATION", "result": "inactive; negative"}, {"measurement": "mutagenic call", "setting": "Test System: AMES SALMONELLA TYPHIMURIUM, Strain/Indicator: TA97, Metabolic Activation: HAMSTER, LIVER, S-9, AROCLOR 1254 (30%), Method: PREINCUBATION", "result": "inactive; negative"}, {"measurement": "mutagenic call", "setting": "Test System: AMES SALMONELLA TYPHIMURIUM, Strain/Indicator: TA97, Metabolic Activation: NONE, Method: PREINCUBATION", "result": "inactive; negative"}, {"measurement": "mutagenic call", "setting": "Test System: AMES SALMONELLA TYPHIMURIUM, Strain/Indicator: TA97, Metabolic Activation: RAT, LIVER, S-9, AROCLOR 1254 (10%), Method: PREINCUBATION", "result": "inactive; negative"}, {"measurement": "mutagenic call", "setting": "Test System: AMES SALMONELLA TYPHIMURIUM, Strain/Indicator: TA97, Metabolic Activation: RAT, LIVER, S-9, AROCLOR 1254 (30%), Method: PREINCUBATION", "result": "inactive; negative"}, {"measurement": "mutagenic call", "setting": "Test System: AMES SALMONELLA TYPHIMURIUM, Strain/Indicator: TA98, Metabolic Activation: HAMSTER, LIVER, S-9, AROCLOR 1254 (10%), Method: PREINCUBATION", "result": "inactive; negative"}, {"measurement": "mutagenic call", "setting": "Test System: AMES SALMONELLA TYPHIMURIUM, Strain/Indicator: TA98, Metabolic Activation: HAMSTER, LIVER, S-9, AROCLOR 1254 (30%), Method: PREINCUBATION", "result": "inactive; negative"}, {"measurement": "mutagenic call", "setting": "Test System: AMES SALMONELLA TYPHIMURIUM, Strain/Indicator: TA98, Metabolic Activation: NONE, Method: PREINCUBATION", "result": "inactive; negative"}, {"measurement": "mutagenic call", "setting": "[1]", "result": "inactive; negative"}, {"measurement": "mutagenic call", "setting": "Test System: AMES SALMONELLA TYPHIMURIUM, Strain/Indicator: TA98, Metabolic Activation: RAT, LIVER, S-9, AROCLOR 1254 (10%), Method: PREINCUBATION", "result": "inactive; negative"}, {"measurement": "mutagenic call", "setting": "Test System: AMES SALMONELLA TYPHIMURIUM, Strain/Indicator: TA98, Metabolic Activation: RAT, LIVER, S-9, AROCLOR 1254 (30%), Method: PREINCUBATION", "result": "inactive; negative"}, {"measurement": "mutagenic call", "setting": "Test System: AMES SALMONELLA TYPHIMURIUM, Strain/Indicator: TA98, Metabolic Activation: RAT, LIVER, S-9, AROCLOR 1254, Method: STANDARD PLATE", "result": "inactive; negative"}, {"measurement": "mutagenic call", "setting": "Test System: AMES SALMONELLA TYPHIMURIUM, Strain/Indicator: TA98, Metabolic Activation: S-9, AROCLOR 1254, Method: STANDARD PLATE", "result": "inactive; negative"}, {"measurement": "mutagenic call", "setting": "Test System: AMES SALMONELLA TYPHIMURIUM, Strain/Indicator: TA100, Metabolic Activation: HAMSTER, LIVER, S-9, AROCLOR 1254 (10%), Method: PREINCUBATION", "result": "inactive; negative"}, {"measurement": "mutagenic call", "setting": "Test System: AMES SALMONELLA TYPHIMURIUM, Strain/Indicator: TA100, Metabolic Activation: HAMSTER, LIVER, S-9, AROCLOR 1254 (30%), Method: PREINCUBATION", "result": "inactive; negative"}, {"measurement": "mutagenic call", "setting": "Test System: AMES SALMONELLA TYPHIMURIUM, Strain/Indicator: TA100, Metabolic Activation: NONE, Method: PREINCUBATION", "result": "inactive; negative"}, {"measurement": "mutagenic call", "setting": "[2]", "result": "inactive; negative"}, {"measurement": "mutagenic call", "setting": "Test System: AMES SALMONELLA TYPHIMURIUM, Strain/Indicator: TA100, Metabolic Activation: RAT, LIVER, S-9, AROCLOR 1254 (10%), Method: PREINCUBATION", "result": "inactive; negative"}, {"measurement": "mutagenic call", "setting": "Test System: AMES SALMONELLA TYPHIMURIUM, Strain/Indicator: TA100, Metabolic Activation: RAT, LIVER, S-9, AROCLOR 1254 (30%), Method: PREINCUBATION", "result": "inactive; negative"}, {"measurement": "mutagenic call", "setting": "Test System: AMES SALMONELLA TYPHIMURIUM, Strain/Indicator: TA100, Metabolic Activation: RAT, LIVER, S-9, AROCLOR 1254, Method: STANDARD PLATE", "result": "inactive; negative"}, {"measurement": "mutagenic call", "setting": "Test System: AMES SALMONELLA TYPHIMURIUM, Strain/Indicator: TA100, Metabolic Activation: S-9, AROCLOR 1254, Method: STANDARD PLATE", "result": "active; positive"}, {"measurement": "mutagenic call", "setting": "Test System: AMES SALMONELLA TYPHIMURIUM, Strain/Indicator: TA1535, Metabolic Activation: HAMSTER, LIVER, S-9, AROCLOR 1254 (10 OR 30%), Method: PREINCUBATION", "result": "inactive; negative"}, {"measurement": "mutagenic call", "setting": "Test System: AMES SALMONELLA TYPHIMURIUM, Strain/Indicator: TA1535, Metabolic Activation: NONE, Method: PREINCUBATION", "result": "inactive; negative"}, {"measurement": "mutagenic call", "setting": "[3]", "result": "inactive; negative"}, {"measurement": "mutagenic call", "setting": "Test System: AMES SALMONELLA TYPHIMURIUM, Strain/Indicator: TA1535, Metabolic Activation: RAT, LIVER, S-9, AROCLOR 1254 (10 OR 30%), Method: PREINCUBATION", "result": "inactive; negative"}, {"measurement": "mutagenic call", "setting": "Test System: AMES SALMONELLA TYPHIMURIUM, Strain/Indicator: TA1535, Metabolic Activation: RAT, LIVER, S-9, AROCLOR 1254, Method: STANDARD PLATE", "result": "inactive; negative"}, {"measurement": "mutagenic call", "setting": "[4]", "result": "inactive; negative"}, {"measurement": "mutagenic call", "setting": "Test System: AMES SALMONELLA TYPHIMURIUM, Strain/Indicator: TA1537, Metabolic Activation: RAT, LIVER, S-9, AROCLOR 1254, Method: STANDARD PLATE", "result": "inactive; negative"}, {"measurement": "mutagenic call", "setting": "[5]", "result": "inactive; negative"}, {"measurement": "mutagenic call", "setting": "Test System: AMES SALMONELLA TYPHIMURIUM, Strain/Indicator: TA1538, Metabolic Activation: RAT, LIVER, S-9, AROCLOR 1254, Method: STANDARD PLATE", "result": "inactive; negative"}, {"measurement": "mutagenic call", "setting": "Test System: CHO/HGPRT, Strain/Indicator: CHO-K1-BH4, Metabolic Activation: NONE, Method: PREINCUBATION", "result": "inactive; negative"}, {"measurement": "mutagenic call", "setting": "Test System: CHO/HGPRT, Strain/Indicator: CHO-K1-BH4, Metabolic Activation: RAT, LIVER, S-9, AROCLOR 1254, Method: PREINCUBATION", "result": "inactive; negative"}, {"measurement": "mutagenic call", "setting": "Test System: E. COLI, Strain/Indicator: WP2, Metabolic Activation: NONE, Method: STANDARD PLATE", "result": "inactive; negative"}, {"measurement": "mutagenic call", "setting": "Test System: E. COLI, Strain/Indicator: WP2, Metabolic Activation: RAT, LIVER, S-9, AROCLOR 1254, Method: STANDARD PLATE", "result": "inactive; negative"}]}
{"smiles": "CC(C)Oc1ccc2c(=O)c(-c3ccccc3)coc2c1", "values": [{"measurement": "mutagenic call", "setting": "[1]", "result": "inactive; negative"}, {"measurement": "mutagenic call", "setting": "Test System: AMES SALMONELLA TYPHIMURIUM, Strain/Indicator: TA98, Metabolic Activation: S-9, Method: STANDARD PLATE", "result": "inactive; negative"}, {"measurement": "mutagenic call", "setting": "[2]", "result": "inactive; negative"}, {"measurement": "mutagenic call", "setting": "Test System: AMES SALMONELLA TYPHIMURIUM, Strain/Indicator: TA100, Metabolic Activation: S-9, Method: STANDARD PLATE", "result": "inactive; negative"}, {"measurement": "mutagenic call", "setting": "[3]", "result": "inactive; negative"}, {"measurement": "mutagenic call", "setting": "Test System: AMES SALMONELLA TYPHIMURIUM, Strain/Indicator: TA1535, Metabolic Activation: S-9, Method: STANDARD PLATE", "result": "inactive; negative"}, {"measurement": "mutagenic call", "setting": "[4]", "result": "inactive; negative"}, {"measurement": "mutagenic call", "setting": "Test System: AMES SALMONELLA TYPHIMURIUM, Strain/Indicator: TA1537, Metabolic Activation: S-9, Method: STANDARD PLATE", "result": "inactive; negative"}, {"measurement": "mutagenic call", "setting": "[5]", "result": "inactive; negative"}, {"measurement": "mutagenic call", "setting": "Test System: AMES SALMONELLA TYPHIMURIUM, Strain/Indicator: TA1538, Metabolic Activation: S-9, Method: STANDARD PLATE", "result": "inactive; negative"}, {"measurement": "mutagenic call", "setting": "Test System: E. COLI, Strain/Indicator: WP2 UVRA, Metabolic Activation: NONE, Method: STANDARD PLATE", "result": "inactive; negative"}, {"measurement": "mutagenic call", "setting": "Test System: E. COLI, Strain/Indicator: WP2 UVRA, Metabolic Activation: S-9, Method: STANDARD PLATE", "result": "inactive; negative"}]}
